Measurements reported in patent publication US11878975B2, “Substituted indole compounds useful as TLR inhibitors” (BRISTOL-MYERS SQUIBB COMPANY, priority 2017, dated 2024).

How the values were obtained:
Type in all cases: cell-based
[1] = target: T1, human TLR9 (Homo sapiens, UniProt Q9NR96); experiment: TLR9 inhibition reporter assay (HEK-Blue cells, SEAP reporter, ODN2006 stimulation); conditions: HEK-Blue cells overexpressing human TLR9, SEAP reporter, ODN2006 5 nM
T1 construct: host or cells: HEK-Blue cells
T1 sequence (Q9NR96 26-1032): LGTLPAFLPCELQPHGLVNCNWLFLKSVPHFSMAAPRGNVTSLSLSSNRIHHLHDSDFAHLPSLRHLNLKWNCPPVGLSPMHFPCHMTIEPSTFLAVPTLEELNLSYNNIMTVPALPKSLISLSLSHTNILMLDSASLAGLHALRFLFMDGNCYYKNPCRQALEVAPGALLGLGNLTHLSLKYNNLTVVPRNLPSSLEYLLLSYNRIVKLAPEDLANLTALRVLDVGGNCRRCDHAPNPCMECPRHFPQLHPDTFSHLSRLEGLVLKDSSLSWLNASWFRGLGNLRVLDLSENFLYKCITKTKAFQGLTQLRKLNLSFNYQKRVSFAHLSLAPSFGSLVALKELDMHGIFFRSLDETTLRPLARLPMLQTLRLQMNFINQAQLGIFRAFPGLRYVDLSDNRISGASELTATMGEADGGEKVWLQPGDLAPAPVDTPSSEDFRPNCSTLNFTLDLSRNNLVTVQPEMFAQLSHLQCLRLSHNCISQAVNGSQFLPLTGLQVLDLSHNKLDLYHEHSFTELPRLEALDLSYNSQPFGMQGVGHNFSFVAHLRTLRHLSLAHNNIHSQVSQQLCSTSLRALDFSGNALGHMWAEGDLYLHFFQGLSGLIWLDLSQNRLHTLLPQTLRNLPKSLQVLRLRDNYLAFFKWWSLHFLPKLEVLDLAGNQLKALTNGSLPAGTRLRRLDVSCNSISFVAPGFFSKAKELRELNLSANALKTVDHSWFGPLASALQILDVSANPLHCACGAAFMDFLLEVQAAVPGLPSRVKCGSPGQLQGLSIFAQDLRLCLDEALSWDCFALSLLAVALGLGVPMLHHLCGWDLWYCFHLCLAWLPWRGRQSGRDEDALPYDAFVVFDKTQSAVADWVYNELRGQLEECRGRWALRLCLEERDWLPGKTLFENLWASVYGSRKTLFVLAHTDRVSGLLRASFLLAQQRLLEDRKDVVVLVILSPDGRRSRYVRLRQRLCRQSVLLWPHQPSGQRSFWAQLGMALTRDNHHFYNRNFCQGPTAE
In short: (§1)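 Percent inhibition is derived from SEAP signal, scaled between agonist-plus-DMSO wells and wells given a known inhibitor. Test compounds (0.05 nM–50 μM) are pre-incubated 30 min at room temperature before agonist addition (TLR7: 7.5 μM gardiquimod; TLR8: 15.9 μM R848; TLR9: 5 nM ODN2006) and 22 h culture at 37 °C.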

[2] = target: T2, human TLR7 (Homo sapiens, UniProt Q9NYK1); experiment: TLR7 inhibition reporter assay (HEK-Blue cells, SEAP reporter, gardiquimod stimulation); conditions: HEK-Blue cells overexpressing human TLR7, SEAP reporter, gardiquimod 7.5 μM
T2 construct: host or cells: HEK-Blue cells
T2 sequence (Q9NYK1 27-1049): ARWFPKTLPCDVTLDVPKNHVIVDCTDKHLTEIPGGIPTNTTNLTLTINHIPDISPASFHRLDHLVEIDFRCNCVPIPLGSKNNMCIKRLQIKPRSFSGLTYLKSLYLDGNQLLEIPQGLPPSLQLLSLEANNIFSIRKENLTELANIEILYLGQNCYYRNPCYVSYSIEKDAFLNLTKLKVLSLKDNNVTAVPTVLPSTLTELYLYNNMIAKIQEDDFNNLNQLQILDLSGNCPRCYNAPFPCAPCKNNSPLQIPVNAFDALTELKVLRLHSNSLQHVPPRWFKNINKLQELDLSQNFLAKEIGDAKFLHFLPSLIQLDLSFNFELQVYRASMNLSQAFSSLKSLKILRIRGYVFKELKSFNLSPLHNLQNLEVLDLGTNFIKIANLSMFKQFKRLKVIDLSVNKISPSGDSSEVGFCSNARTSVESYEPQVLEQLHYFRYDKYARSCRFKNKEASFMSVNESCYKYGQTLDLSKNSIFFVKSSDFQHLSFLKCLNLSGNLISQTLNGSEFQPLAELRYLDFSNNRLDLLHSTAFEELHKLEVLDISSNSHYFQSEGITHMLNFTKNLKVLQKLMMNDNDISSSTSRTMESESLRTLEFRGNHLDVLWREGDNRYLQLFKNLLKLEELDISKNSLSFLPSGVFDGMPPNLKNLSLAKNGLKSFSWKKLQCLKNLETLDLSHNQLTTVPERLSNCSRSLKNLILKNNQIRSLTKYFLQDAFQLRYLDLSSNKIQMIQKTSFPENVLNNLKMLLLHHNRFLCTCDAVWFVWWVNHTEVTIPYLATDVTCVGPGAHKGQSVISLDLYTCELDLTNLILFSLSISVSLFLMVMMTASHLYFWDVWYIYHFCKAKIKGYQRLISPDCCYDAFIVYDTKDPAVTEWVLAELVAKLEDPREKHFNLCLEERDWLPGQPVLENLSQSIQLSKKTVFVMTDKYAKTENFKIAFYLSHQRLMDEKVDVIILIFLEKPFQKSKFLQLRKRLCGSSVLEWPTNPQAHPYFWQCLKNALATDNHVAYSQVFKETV
In short: as §1

[3] = target: T3, human TLR8 (Homo sapiens, UniProt Q9NR97); experiment: TLR8 inhibition reporter assay (HEK-Blue cells, SEAP reporter, R848 stimulation); conditions: HEK-Blue cells overexpressing human TLR8, SEAP reporter, R848 15.9 μM
T3 construct: host or cells: HEK-Blue cells
T3 sequence (Q9NR97 27-1041): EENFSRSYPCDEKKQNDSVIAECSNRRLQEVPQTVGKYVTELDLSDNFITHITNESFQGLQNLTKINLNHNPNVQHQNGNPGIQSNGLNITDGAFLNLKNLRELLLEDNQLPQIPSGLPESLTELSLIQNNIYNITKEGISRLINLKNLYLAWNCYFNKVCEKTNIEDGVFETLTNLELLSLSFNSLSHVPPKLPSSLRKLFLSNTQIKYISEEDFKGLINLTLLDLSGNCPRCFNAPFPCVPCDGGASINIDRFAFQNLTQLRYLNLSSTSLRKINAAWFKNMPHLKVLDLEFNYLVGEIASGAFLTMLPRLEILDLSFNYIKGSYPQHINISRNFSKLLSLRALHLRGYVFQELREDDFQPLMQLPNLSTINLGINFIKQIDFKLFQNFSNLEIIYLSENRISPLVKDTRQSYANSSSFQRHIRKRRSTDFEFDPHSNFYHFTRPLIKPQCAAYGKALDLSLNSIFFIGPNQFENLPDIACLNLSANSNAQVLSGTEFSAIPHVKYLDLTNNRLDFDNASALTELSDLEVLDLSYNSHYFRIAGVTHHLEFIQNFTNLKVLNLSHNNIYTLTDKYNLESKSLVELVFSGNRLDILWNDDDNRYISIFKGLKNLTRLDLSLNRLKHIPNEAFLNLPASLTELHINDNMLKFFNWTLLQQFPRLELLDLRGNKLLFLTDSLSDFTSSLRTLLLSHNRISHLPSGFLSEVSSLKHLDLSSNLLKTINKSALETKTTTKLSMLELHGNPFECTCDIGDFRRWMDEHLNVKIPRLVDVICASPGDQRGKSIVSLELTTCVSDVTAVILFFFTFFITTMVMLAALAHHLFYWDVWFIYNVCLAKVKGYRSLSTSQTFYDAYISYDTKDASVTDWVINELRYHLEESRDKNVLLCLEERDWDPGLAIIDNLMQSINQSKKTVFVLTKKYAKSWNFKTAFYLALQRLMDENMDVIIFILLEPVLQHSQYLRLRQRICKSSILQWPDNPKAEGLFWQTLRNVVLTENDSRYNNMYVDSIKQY
In short: as §1

COc1cc(-c2[nH]c3ccc(CCN4CCCC4)cc3c2C(C)C)cn2ncnc12 [Example 414]
IC50 [1]: 4510 nM
IC50 [2]: 3 nM
IC50 [3]: 4 nM

Cc1c(-c2[nH]c3ccc(CC4CN(C(=O)CN(C)C)C4)cc3c2C(C)C)cn(C)c(=O)c1C [Example 415]
IC50 [1]: 5020 nM
IC50 [2]: 40 nM
IC50 [3]: 38 nM

Cc1c(-c2[nH]c3ccc(CC4CN(C5CCOCC5)C4)cc3c2C(C)C)cn(C)c(=O)c1C [Example 416]
IC50 [1]: 4090 nM
IC50 [2]: 115 nM
IC50 [3]: 6.4 nM

Cc1c(-c2[nH]c3ccc(CC4CNC4)cc3c2C(C)C)cn(C)c(=O)c1C [Example 417]
IC50 [1]: 2110 nM
IC50 [2]: 76 nM
IC50 [3]: 36 nM

Cc1c(-c2[nH]c3ccc(CC4CN(CCS(C)(=O)=O)C4)cc3c2C(C)C)cn(C)c(=O)c1C [Example 418]
IC50 [1]: 9210 nM
IC50 [2]: 77 nM
IC50 [3]: 7 nM

CCc1c(-c2ccc(OC)c(OC)c2)[nH]c2ccc(CC3CCCN3)cc12 (stereo not drawn) [Example 419]
IC50 [1]: 3760 nM
IC50 [2]: 418 nM
IC50 [3]: 27 nM

CCc1c(-c2ccnc(C)c2)[nH]c2ccc(CC3CCCN3)cc12 (stereo not drawn) [Example 420]
IC50 [1]: 1060 nM
IC50 [2]: 306 nM
IC50 [3]: 38 nM

CC(C)c1c(-c2ccnc3[nH]ncc23)[nH]c2ccc(CCC3CCNCC3)cc12 [Example 421]
IC50 [1]: 1100 nM
IC50 [2]: 14 nM
IC50 [3]: 4 nM

CC(C)c1c(-c2ccnc3[nH]ncc23)[nH]c2ccc(/C=C/C3CCNCC3)cc12 [Example 422]
IC50 [1]: 457 nM
IC50 [2]: 13 nM
IC50 [3]: 2.1 nM

CC(C)c1c(-c2ccnc3[nH]ncc23)[nH]c2ccc(C(C)C3CCNCC3)cc12 (stereo not drawn) [Example 423]
IC50 [1]: 2080 nM
IC50 [2]: 34 nM
IC50 [3]: 16 nM

CC(C)c1c(-c2ccnc3[nH]ncc23)[nH]c2ccc(CC3CCNCC3)cc12 [Example 424]
IC50 [1]: 2100 nM
IC50 [2]: 24 nM
IC50 [3]: 2.9 nM

Cc1cc(-c2[nH]c3ccc(CC4CCCN4C4CCOCC4)cc3c2C(C)C)cn2ncnc12 (stereo not drawn) [Example 425]
IC50 [1]: 2490 nM
IC50 [2]: 0.72 nM
IC50 [3]: 1.4 nM

Cc1cc(-c2[nH]c3ccc(CC4CCCN4CC(=O)N(C)C)cc3c2C(C)C)cn2ncnc12 (stereo not drawn) [Example 426]
IC50 [1]: 11200 nM
IC50 [2]: 2 nM
IC50 [3]: 13 nM

Cc1c(-c2[nH]c3ccc(CC4CCCN4C4COC4)cc3c2C(C)C)cn2cnnc2c1C (stereo not drawn) [Example 427]
IC50 [1]: 17600 nM
IC50 [2]: 12 nM
IC50 [3]: 19 nM

Cc1c(-c2[nH]c3ccc(CC4CCCN4CCS(C)(=O)=O)cc3c2C(C)C)cn2cnnc2c1C (stereo not drawn) [Example 428]
IC50 [1]: 16200 nM
IC50 [2]: 49 nM
IC50 [3]: 15 nM

Cc1c(-c2[nH]c3ccc(CC4CCCN4C4CCOCC4)cc3c2C(C)C)cn2cnnc2c1C (stereo not drawn) [Example 429]
IC50 [1]: 6780 nM
IC50 [2]: 11 nM
IC50 [3]: 17 nM

COc1cc(-c2[nH]c3ccc(CC4CNC4)cc3c2C(C)C)cn2ncnc12 [Example 430]
IC50 [1]: 860 nM
IC50 [2]: 12 nM
IC50 [3]: 41 nM

COc1cc(-c2[nH]c3ccc(CC4CN(CCS(C)(=O)=O)C4)cc3c2C(C)C)cn2ncnc12 [Example 431]
IC50 [1]: 2780 nM
IC50 [2]: 2 nM
IC50 [3]: 3.5 nM

COc1cc(-c2[nH]c3ccc(CC4CN(CC#N)C4)cc3c2C(C)C)cn2ncnc12 [Example 432]
IC50 [1]: 5350 nM
IC50 [2]: 8 nM
IC50 [3]: 49 nM

COc1cc(-c2[nH]c3ccc(CC4CN(C(C)C)C4)cc3c2C(C)C)cn2ncnc12 [Example 433]
IC50 [1]: 2190 nM
IC50 [2]: 2 nM
IC50 [3]: 3 nM

COc1cc(-c2[nH]c3ccc(CC4CN(C(=O)CN(C)C)C4)cc3c2C(C)C)cn2ncnc12 [Example 434]
IC50 [1]: 7490 nM
IC50 [2]: 1 nM
IC50 [3]: 7.4 nM

Cc1c(-c2[nH]c3ccc(CC4CN(C(C)C)C4)cc3c2C(C)C)cn2ncnc2c1C [Example 435]
IC50 [1]: 3410 nM
IC50 [2]: 10 nM
IC50 [3]: 2.5 nM

Cc1c(-c2[nH]c3ccc(CC4CN(C(=O)CN(C)C)C4)cc3c2C(C)C)cn2ncnc2c1C [Example 436]
IC50 [1]: 10800 nM
IC50 [2]: 3 nM
IC50 [3]: 11 nM

Cc1c(-c2[nH]c3ccc(CC4CN(CCS(C)(=O)=O)C4)cc3c2C(C)C)cn2ncnc2c1C [Example 437]
IC50 [1]: 4720 nM
IC50 [2]: 8 nM
IC50 [3]: 4.2 nM

COc1cc(-c2[nH]c3ccc(CCC4CN(C)C4)cc3c2C(C)C)cn2ncnc12 [Example 438]
IC50 [1]: 2100 nM
IC50 [2]: 5 nM
IC50 [3]: 37 nM

COc1cc(-c2[nH]c3ccc(CCC4CN(C(=O)CN(C)C)C4)cc3c2C(C)C)cn2ncnc12 [Example 439]
IC50 [1]: 2240 nM
IC50 [2]: 1 nM
IC50 [3]: 6.3 nM

COc1cc(-c2[nH]c3ccc(CCC4CNC4)cc3c2C(C)C)cn2ncnc12 [Example 440]
IC50 [1]: 1480 nM
IC50 [2]: 4 nM
IC50 [3]: 16 nM

COc1cc(-c2[nH]c3ccc(CCC4CN(CC(C)(C)O)C4)cc3c2C(C)C)cn2ncnc12 [Example 441]
IC50 [1]: 2570 nM
IC50 [2]: 2 nM
IC50 [3]: 3.8 nM
